Assay [1] concerns the target PARG (Homo sapiens, UniProt Q86W56). Kind of assay: Biochemical assay (PARG, TFMU-ADPr substrate).
The test system of assay [2] is Human breast squamous carcinoma cells HCC1806. Kind of assay: Cell function assay (In-Cell Western, PAR/pADPr after MMS). Type of assay: cell-based. Particulars: read-out: IC50 (nM) in cell function assay. On the procedure:
2. Cell Function Assay (In-Cell Western)
• 1) Human breast squamous carcinoma cells HCC1806 (ATCC) were seeded to the 384-well plate (Corning, #3764) at 20,000 cells/well, incubated for 24 h in a CO2 (5%) incubator at 37° C. to allow for complete adherence of the cells; • 2) 120 nL compounds or DMSO were added to the 384-well plate by Echo 550 (LABCYTE, #550) (final concentrations of compounds: 30000 nM, 10000 nM, 3000 nM, 1000 nM, 300 nM, 100 nM, 30 nM, 10 nM, 3 nM, 1 nM, 0 nM), and then the cells were incubated for 1 h in a CO2 (5%) incubator at 37° C.; • 3) 40 nL MMS (methyl mesylate, Sigma, #129925)(final concentration: 0.5 mM) was added to the plate by Echo 550, and the cells were treated for 1 h in a CO2 (5%) incubator at 37° C.

The mark [3] stands for this setting: 4 nM PARG, 66.2 uM TFMU-ADPr, 3 min at room temperature.
Where [4] appears, read: HCC1806, In-Cell Western, MMS treatment.
Setting [5] is: HCC1806, compound 1 h then 0.5 mM MMS 1 h, PAR/pADPr antibody, In-Cell Western.

Read-outs that look alike come from different tables or passages of the source.

As usually defined, the IC50 is the concentration at which inhibition is half-maximal.

PARG, sequence (Q86W56 whole entry): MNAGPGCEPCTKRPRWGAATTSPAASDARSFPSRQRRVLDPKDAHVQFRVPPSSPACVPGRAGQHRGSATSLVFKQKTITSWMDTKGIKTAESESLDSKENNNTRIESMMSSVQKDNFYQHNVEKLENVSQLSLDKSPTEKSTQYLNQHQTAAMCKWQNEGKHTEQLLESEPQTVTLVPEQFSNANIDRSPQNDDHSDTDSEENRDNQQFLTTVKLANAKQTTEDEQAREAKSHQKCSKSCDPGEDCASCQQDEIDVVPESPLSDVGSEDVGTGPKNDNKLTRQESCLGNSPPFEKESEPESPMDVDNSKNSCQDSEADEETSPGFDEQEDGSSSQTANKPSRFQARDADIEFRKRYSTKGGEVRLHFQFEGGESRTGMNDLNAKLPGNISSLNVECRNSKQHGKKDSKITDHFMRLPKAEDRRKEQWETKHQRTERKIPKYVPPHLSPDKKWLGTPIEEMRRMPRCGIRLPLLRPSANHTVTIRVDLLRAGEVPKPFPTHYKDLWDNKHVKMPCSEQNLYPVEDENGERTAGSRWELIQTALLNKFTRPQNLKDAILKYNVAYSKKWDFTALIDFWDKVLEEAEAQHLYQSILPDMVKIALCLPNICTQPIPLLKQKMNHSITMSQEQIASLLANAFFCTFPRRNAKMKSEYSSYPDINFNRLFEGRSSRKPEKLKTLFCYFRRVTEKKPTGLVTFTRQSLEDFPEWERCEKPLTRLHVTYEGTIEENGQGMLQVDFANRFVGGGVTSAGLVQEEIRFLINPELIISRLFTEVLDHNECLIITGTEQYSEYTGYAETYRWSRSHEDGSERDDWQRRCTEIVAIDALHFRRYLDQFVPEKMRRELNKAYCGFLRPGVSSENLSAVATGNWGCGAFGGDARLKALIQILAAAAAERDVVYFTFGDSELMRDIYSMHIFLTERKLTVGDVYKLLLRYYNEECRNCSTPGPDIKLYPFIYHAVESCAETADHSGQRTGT

Turning to `C[C@@H]1CN(c2cc(S(=O)(=O)NC3(C#N)CC3)cn3c(-c4nnc(C(F)F)s4)ncc23)CCN1C(=O)C1(C)CC1` [Example 62, (R)-N-(1-cyanocyclopropyl)-3-(5-(difluoromethyl)-1,3,4-thiadiazol-2-yl)-8-(3-methyl-4-(1-methylcyclopropane-1-carbonyl)piperazin-1-yl)imidazo[1,5-a]pyridine-6-sulfonamide], the IC50 was less than 100 nM in assay [1] (setting [3]); 3.75 nM in assay [1] (PARG, TFMU-ADPr substrate); 3.52 nM in assay [2] (setting [4]); less than 100 nM in assay [2] (setting [5]).

Consider `N#CC1(NS(=O)(=O)c2cc(N3CCC4(CC3)COC4)c3cnc(-c4nnc(C(F)F)s4)n3c2)CC1` [Example 39, N-(1-cyanocyclopropyl)-3-(5-(difluoromethyl)-1,3,4-thiadiazol-2-yl)-8-(2-oxa-7-azaspiro[3.5]nonan-7-yl)imidazo[1,5-a]pyridine-6-sulfonamide], for which the IC50 is less than 100 nM in assay [1] (setting [3]); 2.72 nM in assay [1] (PARG, TFMU-ADPr substrate); 13.2 nM in assay [2] (setting [4]); less than 100 nM in assay [2] (setting [5]).

Regarding `C[C@@H]1CN(c2cc(S(=O)(=O)NC3(CF)CC3)cn3c(-c4nnc(C(F)F)s4)ncc23)CCN1C(=O)C1(C)CC1` [Example 63, (R)-3-(5-(difluoromethyl)-1,3,4-thiadiazol-2-yl)-N-(1-(fluoromethyl)cyclopropyl)-8-(3-methyl-4-(1-methylcyclopropane-1-carbonyl)piperazin-1-yl)imidazo[1,5-a]pyridine-6-sulfonamide], the IC50 was less than 100 nM in assay [1] (setting [3]); 2.12 nM in assay [1] (PARG, TFMU-ADPr substrate); 1.36 nM in assay [2] (setting [4]); less than 100 nM in assay [2] (setting [5]).

Consider `CC(C)C(=O)N1CCN(c2cc(S(=O)(=O)NC3(C(F)F)COC3)cn3c(-c4nnc(C(F)F)s4)ncc23)CC1` [Example 149, 3-(5-(difluoromethyl)-1,3,4-thiadiazol-2-yl)-N-(3-(difluoromethyl)oxetan-3-yl)-8-(4-isobutyrylpiperazin-1-yl)imidazo[1,5-a]pyridine-6-sulfonamide], for which the IC50 was less than 100 nM in assay [1] (setting [3]); 6.23 nM in assay [1] (PARG, TFMU-ADPr substrate); 57.7 nM in assay [2] (setting [4]); less than 100 nM in assay [2] (setting [5]).

Turning to `C[C@@H]1CN(c2cc(S(=O)(=O)NC3(C)CC3)cn3c(-c4nnc(C(F)F)s4)ncc23)CCN1C(=O)C1(C)CC1` [Example 71, (R)-3-(5-(difluoromethyl)-1,3,4-thiadiazol-2-yl)-8-(3-methyl-4-(1-methylcyclopropane-1-carbonyl)piperazin-1-yl)-N-(1-methylcyclopropyl)imidazo[1,5-a]pyridine-6-sulfonamide], the half-maximal inhibitory concentration (IC50) was less than 100 nM in assay [1] (setting [3]); 1.32 nM in assay [1] (PARG, TFMU-ADPr substrate); 0.67 nM in assay [2] (setting [4]); less than 100 nM in assay [2] (setting [5]).

For `CC(C)C(=O)N1CCN(c2cc(S(=O)(=O)NC3(C)CC3)cn3c(-c4nnc(C(F)F)s4)nc(C#N)c23)CC1` [Example 163, 1-cyano-3-(5-(difluoromethyl)-1,3,4-thiadiazol-2-yl)-8-(4-isobutyrylpiperazin-1-yl)-N-(1-methylcyclopropyl)imidazo[1,5-a]pyridine-6-sulfonamide], the IC50 is less than 100 nM in assay [1] (setting [3]); 1.58 nM in assay [1] (PARG, TFMU-ADPr substrate); 5.14 nM in assay [2] (setting [4]); less than 100 nM in assay [2] (setting [5]).

As to `O=S(=O)(NC1(CF)CC1)c1cc(N2CCC(O)(C(F)(F)F)CC2)c2nnc(-c3nnc(C(F)F)s3)n2c1` [Example 115, 3-(5-(difluoromethyl)-1,3,4-thiadiazol-2-yl)-N-(1-(fluoromethyl)cyclopropyl)-8-(4-hydroxy-4-(trifluoromethyl)piperidin-1-yl)-[1,2,4]triazolo[4,3-a]pyridine-6-sulfonamide], the IC50 is less than 100 nM in assay [1] (setting [3]); 1.88 nM in assay [1] (PARG, TFMU-ADPr substrate); 8.51 nM in assay [2] (setting [4]); less than 100 nM in assay [2] (setting [5]).
